Consider one compound from article PMC9609178, “Tumor-Specific Monomethyl Auristatin E (MMAE) Prodrug Nanoparticles for Safe and Effective Chemotherapy” (Pharmaceutics, 2022).

Square brackets hold non-standard residues; d marks the D form. Peptide text beside a SMILES is read from it. * marks the point of attachment. Dolaproine = CO[C@@H]([C@@H]1CCCN1)[C@@H](C)C(=O)O; Dil = CC[C@H](C)[C@H](NC)[C@@H](CC(=O)O)OC; X1 = C[C@@H](N*)[C@@H](O)c1ccccc1; NMeV = CN[C@H](C(=O)O)C(C)C

For data set [1] the following is noted: cited from earlier work. The text has this:
Monomethyl auristatin E (MMAE), a synthetic analog of the natural product dolastatin 10, is a potent antimitotic agent that inhibits tubulin polymerization.

A short description of data set [2]: Toxicity study in 4T1 tumor-bearing mice (histology, hematology, body weight, survival). Format: in vivo. As to the method: (§1) The antitumor efficacy was evaluated in the breast tumor models. The breast tumor models were prepared via subcutaneous injection of 1 × 10^6 4T1 cells. […] The mice were treated once every three days, and tumor volumes were calculated as the smallest diameter^2 × largest diameter × 0.53. The mice with a tumor volume of 2000 mm^3 or larger were counted as dead. […] The major organs were collected from mice on day 5 after treatments, and structural abnormality in the organ tissues was assessed by staining with H&E.

Data set [3] deals with 4T1 cells. The data set can be described thus: Tubulin formation in 4T1 cells (anti-tubulin antibody staining). It is filed as cell-based, murine. To be noted: after 24 h of treatment; Cy5.5 anti-tubulin antibody. The protocol:
Then, cells were fixed with 4% paraformaldehyde fixative for 25 min, and stained with DAPI solution (Invitrogen, Carlsbad, CA, USA) for 15 min in the dark. Finally, the 4T1 cells were observed using a confocal laser scanning microscope (CLSM) equipped with 405 diode (405 nm) and HeNe-Red (633 nm) lasers (Leica, Wetzlar, Germany).

For data set [4], the system named is 4T1 cells. The data set is described as follows: Cytotoxicity, CCK-8 assay, 4T1 cells. Format: cell-based, murine. To be noted: 24 h incubation; CCK-8, 450 nm; read-out: IC50, cell viability, 4T1 cells. As to the method:
(§2) First, […] 4T1 or H9C2 cells were seeded in the 96-well cell culture plates. […] Finally, the cell viability of each cell was measured using a microplate reader with 450 nm of wavelength (VERSAmaxTM; Molecular Devices Corp., San Jose, CA, USA).

The next data set deals with H9C2 cells. The data set is described as follows: Cytotoxicity, CCK-8 assay, H9C2 cells. It is filed as cell-based, rat. To be noted: 24 h incubation; CCK-8, 450 nm; read-out: IC50, cell viability, H9C2 cells. The protocol:
as §2

A further data set has as its system 4T1 tumor. The data set can be described thus: Antitumor efficacy in 4T1 breast tumor models. Format: in vivo, mice. As to the method:
as §1

For orientation: IC50 means the concentration that gives 50% inhibition.

Consider `CC[C@H](C)[C@@H]([C@@H](CC(=O)N1CCC[C@H]1[C@H](OC)[C@@H](C)C(=O)N[C@H](C)[C@@H](O)c1ccccc1)OC)N(C)C(=O)[C@@H](NC(=O)[C@@H](NC)C(C)C)C(C)C` [MMAE, Monomethyl auristatin E] (H-[NMeV]V[Dil][Dolaproine]-X1), for which the “Antitumor efficacy, times more potent than doxorubicin” value in data set [1] was 100–1000 times. For the same compound, in data set [2] (0.2 mg/kg MMAE equivalent once every three days), the Body weight result is reported as “significant body weight loss”. Further, in data set [2] (0.2 mg/kg MMAE equivalent once every three days, 15 days), the Mice survival entry is “all the mice were dead within five days”. Also, in data set [2] (0.2 mg/kg MMAE equivalent, after five days of treatment), the “Hematological parameters (ALB, AST, ALT)” value is listed as “significant changes”. Also, the “Structural abnormalities in normal organs (liver, lung, spleen, kidney and heart), H&E” value in data set [2] (0.2 mg/kg once every three days, after five days of treatment) is “severe systemic toxicity”. The “Tubulin formation in 4T1 cells compared to naive cells” value in the data set on 4T1 cells [3] is reported as “significantly inhibited”. Moreover, the results for the 50% inhibitory concentration (IC50) in the data set with 4T1 cells [4] and in the data set on H9C2 cells were 0.92 nM and 1.17 nM, respectively. The “Tumor growth during monitoring for 15 days” value in the data set on 4T1 tumor (0.1 mg/kg MMAE once every three days, 15 days) is on record as “rapid tumor growth compared to FRRG-MMAE-treated mice”. Further, the “Tumor volume on day 5 after treatment” value in the data set with 4T1 tumor (0.2 mg/kg based on MMAE contents, once every three days, day 5) came out at 154.73 ± 31.63 mm^3.
